These results are taken from patent US12629374B2, “Antimalarial agents” (Merck Sharp & Dohme LLC, priority 2020, dated 2026).

Where a name gives a salt, the structure may show the parent alone.

The EC50 is the concentration needed to bring the measured effect to its halfway point.

For the first experiment, the system named is ring stage parasites. Nature of the experiment: Parasite growth potency assay, 72 hours, LDH readout. In kind it is cell-based. Particulars: 72 h. The procedure, abridged: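 Parasite growth was quantified by LDH assay after a −80 °C freeze-thaw. Before that, compound was incubated for 72 h at 37 °C under humidified gas with ring-stage cultures adjusted to 0.7% parasitemia and 2% haematocrit in serum- and albumax-supplemented RPMI-Hepes.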
As for `CCC1(CC)CC(=O)N([C@H](c2ccc(OS(=O)(=O)F)cc2)c2cccc(C(=O)N[C@H]3CCOc4ccccc43)c2)C(=N)N1` [Example 150, [1-[[3-[[(4S)-chroman-4-yl]carbamoyl]phenyl]-(4-fluorosulfonyloxyphenyl)methyl]-4,4-diethyl-6-oxo-hexahydropyrimidin-2-ylidene]ammonium; 2,2,2-trifluoroacetate], the midpoint of the response, the EC50, lay at 2.8 nM.

Still in this experiment, the particulars now being: 72 h, parasite growth measured by LDH assay after 72 hours at 37° C.; 0.7% rings, 2% haematocrit; read-out: EC50.
Turning to `CC[C@@H](c1cccc(C(=O)N[C@@H]2c3ccccc3OC(C)(C)[C@H]2O)c1)N1C(=N)NC(CC)(CC)CC1=O` [Example 207B, [4,4-diethyl-1-[1-[3-[[(3S,4R)-3-hydroxy-2,2-dimethyl-chroman-4-yl]carbamoyl]phenyl]propyl]-6-oxo-hexahydropyrimidin-2-ylidene]ammonium; 2,2,2-trifluoroacetate], the EC50 was 72 nM.
Still for that read-out and setting: the figure for `CC[C@]1(C)CC(=O)N([C@H](C)c2cccc(C(=O)NC3c4ccccc4OC(C)(C)C3(C)O)c2)C(=N)N1` (stereo partly drawn) [Example 225, 3-[(1R)-1-[(4R)-4-ethyl-2-imino-4-methyl-6-oxo-hexahydropyrimidin-1-yl]ethyl]-N-(3-hydroxy-2,2,3-trimethyl-chroman-4-yl)benzamide] is 0.32 nM; for `C=C=C(C)[C@H](c1cccc(C(=O)N[C@H]2CCOc3ccccc32)c1)N1C(=N)NC(CC)(CC)CC1=O` [Example 78, [1-[1-[3-[[(4S)-chroman-4-yl]carbamoyl]phenyl]-2-methyl-buta-2,3-dienyl]-4,4-diethyl-6-oxo-hexahydropyrimidin-2-ylidene]ammonium; 2,2,2-trifluoroacetate] it is 3.1 nM.
The same measure, in the same setting: the figure for `CCC1(CC)CC(=O)N([C@H](CCOC)c2cc(F)cc(C(=O)N[C@@H]3c4ccccc4C[C@H]3O)c2)C(=N)N1` [Example 138, [4,4-diethyl-1-[1-[3-fluoro-5-[[(1R,2R)-2-hydroxyindan-1-yl]carbamoyl]phenyl]-3-methoxy-propyl]-6-oxo-hexahydropyrimidin-2-ylidene]ammonium; 2,2,2-trifluoroacetate] is 2.7 nM; for `COCC[C@H](c1cccc(C(=O)N[C@@H]2c3ccccc3OC(C)(C)[C@H]2O)c1)N1C(=N)NC(C)(C)CC1=O` [Example 178, [1-[(1R)-1-[3-[[(3S,4R)-3-hydroxy-2,2-dimethyl-chroman-4-yl]carbamoyl]phenyl]-3-methoxy-propyl]-4,4-dimethyl-6-oxo-hexahydropyrimidin-2-ylidene]ammonium; 2,2,2-trifluoroacetate] it is 2.4 nM; for `CCC1(CC)CC(=O)N([C@H](CCOC)c2cccc(C(=O)N[C@H]3CCOc4ccccc43)c2)C(=N)N1` [Example 56, [1-[1-[3-[[(4S)-chroman-4-yl]carbamoyl]phenyl]-3-methoxy-propyl]-4,4-diethyl-6-oxo-hexahydropyrimidin-2-ylidene]ammonium; 2,2,2-trifluoroacetate] it is 0.5 nM.
Still for that read-out and setting: the value for `C#CCC[C@@H](c1cncc(C(=O)N[C@H]2CC(C)(C)Oc3ccccc32)c1)N1C(=N)N[C@](C)(C(C)C)CC1=O` [Example 114B, [(4S)-1-[1-[5-[[(4S)-2,2-dimethylchroman-4-yl]carbamoyl]pyridin-1-ium-3-yl]pent-4-ynyl]-4-isopropyl-4-methyl-6-oxo-hexahydropyrimidin-2-ylidene]ammonium; 2,2,2-trifluoroacetate] was 18.4 nM; that for `CC[C@@]1(C(C)C)CC(=O)N(Cc2cc(F)cc(C(=O)N[C@H]3CCOc4ccccc43)c2)C(=N)N1` [Example 60, [(4S)-1-[[3-[[(4S)-chroman-4-yl]carbamoyl]-5-fluoro-phenyl]methyl]-4-ethyl-4-isopropyl-6-oxo-hexahydropyrimidin-2-ylidene]ammonium; 2,2,2-trifluoroacetate] was 5.8 nM; that for `CCC1(CC)NC(=N)N([C@H](CCOC)c2cccc(C(=O)N[C@@H]3c4ccccc4C[C@H]3O)c2)C(=O)C1C` (stereo partly drawn) [Example 227A, 3-[(1R)-1-(4,4-diethyl-2-imino-5-methyl-6-oxo-hexahydropyrimidin-1-yl)-3-methoxy-propyl]-N-[(1R,2R)-2-hydroxyindan-1-yl]benzamide] was 1.25 nM.
In the case of `C#CCC[C@H](c1cncc(C(=O)N[C@H]2CC(C)(C)Oc3ccccc32)c1)N1C(=N)N[C@](C)(C(C)C)CC1=O` [Example 114A, [(4S)-1-[1-[5-[[(4S)-2,2-dimethylchroman-4-yl]carbamoyl]pyridin-1-ium-3-yl]pent-4-ynyl]-4-isopropyl-4-methyl-6-oxo-hexahydropyrimidin-2-ylidene]ammonium; 2,2,2-trifluoroacetate], the EC50 was 0.3 nM.
On the same count and under the same terms, the figure for `CCC1(CC)CC(=O)N([C@H](CCOC)c2cccc(C(=O)N[C@@H]3c4ccccc4OC3(C)C)c2)C(=N)N1` [Example 181A, [1-[(1R)-1-[3-[(2,2-dimethyl-3H-benzofuran-3-yl)carbamoyl]phenyl]-3-methoxy-propyl]-4,4-diethyl-6-oxo-hexahydropyrimidin-2-ylidene]ammonium; 2,2,2-trifluoroacetate] is 3 nM.
Same read-out and setting: the value for `CCC1(CC)CC(=O)N(Cc2cccc(C(=O)N[C@@H]3c4ccccc4C(F)(F)C3O)c2)C(=N)N1` (stereo in doubt) [Example 190, [1-[[3-[(3,3-difluoro-2-hydroxy-indan-1-yl)carbamoyl]phenyl]methyl]-4,4-diethyl-6-oxo-hexahydropyrimidin-2-ylidene]ammonium; 2,2,2-trifluoroacetate] was 6.6 nM; that for `CCC1(CC)CC(=O)N([C@H](CCOC)c2cccc(C(=O)N[C@H]3c4cc(F)ccc4OC(C)(C)[C@@H]3O)c2)C(=N)N1` [Example 165A, [4,4-diethyl-1-[(1R)-1-[3-[[(3R,4S)-6-fluoro-3-hydroxy-2,2-dimethyl-chroman-4-yl]carbamoyl]phenyl]-3-methoxy-propyl]-6-oxo-hexahydropyrimidin-2-ylidene]ammonium; 2,2,2-trifluoroacetate] was 41.4 nM; that for `CCC1(CC)CC(=O)N([C@H](CCS(C)(=O)=O)c2cccc(C(=O)N[C@@H]3c4ccccc4C[C@@]3(C)O)c2)C(=N)N1` [Example 154A, 3-[1-(4,4-diethyl-2-imino-6-oxo-hexahydropyrimidin-1-yl)-3-methylsulfonyl-propyl]-N-[(1R,2R)-2-hydroxy-2-methyl-indan-1-yl]benzamide] was 54 nM.

The same experiment, now with this note: parasite growth measured by LDH assay after 72 hours at 37° C.; 0.7% rings, 2% haematocrit; read-out: EC50.
`CCC1(CC)CC(=O)N([C@H](CCOC)c2cccc(C(=O)N[C@@H]3c4ccccc4CC3(O)C(F)(F)F)c2)C(=N)N1` (single isomer, unassigned) [Example 204A]: the concentration for a half-maximal effect (EC50) came out at 21 nM.
In the case of `CCC12CCCCCCC3COc4ccccc4C3NC(=O)c3cccc(c3)CN(C(=N)N1)C(=O)C2` (single isomer, unassigned) [Example 120A, (26-ethyl-8,29-dioxo-17-oxa-1,9,27-triazapentacyclo[24.2.2.13,7.010,19. 011,16]hentriaconta-3,5,7(31),11(16),12,14-hexaen-28-ylidene)ammonium; 2,2,2-trifluoroacetate], the concentration giving a half-maximal response (EC50) is 70.3 nM.
As to `CCC1(CC)CC(=O)N([C@H](CCS(C)(=O)=O)c2cccc(C(=O)N[C@@H]3c4ccccc4C[C@]3(C)O)c2)C(=N)N1` [Example 154B, 3-[1-(4,4-diethyl-2-imino-6-oxo-hexahydropyrimidin-1-yl)-3-methylsulfonyl-propyl]-N-[(1R,2S)-2-hydroxy-2-methyl-indan-1-yl]benzamide], the EC50 was found to be 69 nM.
Still for that read-out and setting: the value for `CCC1(CC)CC(=O)N(C(CC(OC)C(F)(F)F)c2cccc(C(=O)N[C@@H]3c4ccccc4C[C@H]3O)c2)C(=N)N1` (single isomer, unassigned) [Example 238D] was 2.25 nM; that for `CCC1(CC)CC(=O)N(C(c2cncnc2)c2cccc(C(=O)NC3CC(C)(C)Oc4ccccc43)c2)C(=N)N1` (single isomer, unassigned) [Example 92C, 3-[(4,4-diethyl-2-imino-6-oxo-hexahydropyrimidin-1-yl)-pyrimidin-5-yl-methyl]-N-(2,2-dimethylchroman-4-yl)benzamide] was 2.8 nM; that for `CCC1(CC)CC(=O)N([C@H](COCCOC)c2cccc(C(=O)NC3c4ccccc4CC3(C)O)c2)C(=N)N1` (stereo partly drawn) [Example 146B, 3-[(1S)-1-(4,4-diethyl-2-imino-6-oxo-hexahydropyrimidin-1-yl)-2-(2-methoxyethoxy)ethyl]-N-(2-hydroxy-2-methyl-indan-1-yl)benzamide] was 6.4 nM.
Same read-out and setting: the figure for `CC[C@]1(C)CC(=O)N(C(CCOC(F)F)c2cccc(C(=O)NC3c4ccccc4OC(C)(C)C3(C)O)c2)C(=N)N1` (single isomer, unassigned) [Example 240A] is 91.6 nM.

Staying with this experiment, now noted: parasite growth measured by LDH assay after 72 hours at 37° C.; 0.7% rings, 2% haematocrit; trifluoroacetate; read-out: EC50.
For the molecule `CCC1(CC)CC(=O)N(Cc2cccc(C(=O)NC3CC(C)(C)Oc4ccccc43)c2)C(=N)N1` (single isomer, unassigned) [Example 51A, [1-[[3-[(2,2-dimethylchroman-4-yl)carbamoyl]phenyl]methyl]-4,4-diethyl-6-oxo-hexahydropyrimidin-2-ylidene]ammonium; 2,2,2-trifluoroacetate], the concentration for a half-maximal effect (EC50) was determined as 91.9 nM.
In the case of `CC[C@H](c1cccc(C(=O)N[C@@H]2c3ccccc3OC[C@]2(C)O)c1)N1C(=N)NC(CC)(CC)CC1=O` [Example 206B, [4,4-diethyl-1-[1-[3-[[(3R,4R)-3-hydroxy-3-methyl-chroman-4-yl]carbamoyl]phenyl]propyl]-6-oxo-hexahydropyrimidin-2-ylidene]ammonium; 2,2,2-trifluoroacetate], the EC50 is 0.7 nM.
Consider `CC#CCCC(c1cccc(C(=O)NC2CC(C)(C)Oc3ccccc32)c1)N1C(=N)NC(CC)(CC)CC1=O` (centres unmarked) [Example 83C, [1-[1-[3-[(2,2-dimethylchroman-4-yl)carbamoyl]phenyl]hex-4-ynyl]-4,4-diethyl-6-oxo-hexahydropyrimidin-2-ylidene]ammonium; 2,2,2-trifluoroacetate], for which the EC50 was 50.2 nM.
Same read-out and setting: the value for `CCC1(CC)CC(=O)N([C@H](CCOC)c2cc(F)cc(C(=O)NC3c4ccccc4OC3(C)COC)c2)C(=N)N1` (single isomer, unassigned) [Example 176C, trifluoroacetate] was 98.9 nM.
